Source: the supplement of paper PMC7661543
± gives the standard deviation of the averaged measurements.

How the values were obtained:
Experiment in all cases: relative cell number vs DMSO control (72 h) (% of DMSO); higher = less growth inhibition (more cells)
Conditions in all cases: sgRNA knockout: sgNT
BT-20 = test system: BT-20
Experimental: (§1)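 QMAP-Seq: a pool of 5 breast cancer cell lines (ZR-75-1, SKBR3, HCC-38, MDA-MB-231, BT-20), each carrying 12 doxycycline-inducible Cas9 sgRNA perturbations (11 knockouts plus non-targeting sgNT), was treated with compounds for 72 h at four 10-fold doses (10 nM-10 uM or 1 nM-1 uM range). Barcodes were amplified and sequenced, and cell number was interpolated from 293T spike-in standard curves. The result is expressed as % of the median of DMSO wells. Two biological replicates.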

HCC-38 = test system: HCC-38
Experimental: as §1

MDA-MB-231 = test system: MDA-MB-231
Experimental: as §1

SKBR3 = test system: SKBR3
Experimental: as §1

ZR-75-1 = test system: ZR-75-1
Experimental: as §1

`Cc1nc(Nc2n[nH]c3c2CN(C(=O)N[C@H](CN(C)C)c2ccccc2)C3(C)C)c2sccc2n1` was tested, and the relative cell number (BT-20; 10 nM) was 77.3 ± 21, the relative cell number (BT-20; 100 nM) was 46 ± 2.4 and the relative cell number (BT-20; 1000 nM) was 31.8 ± 6.6. It also gave a relative cell number (BT-20; 10000 nM) of 11.6 ± 6.4, a relative cell number (HCC-38; 10 nM) of 64.9 ± 5 and a relative cell number (HCC-38; 100 nM) of 54.5 ± 3.9. The relative cell number (HCC-38; 1000 nM) was 31.5 ± 1.2, the relative cell number (HCC-38; 10000 nM) was 13.5 ± 5.3 and the relative cell number (MDA-MB-231; 10 nM) was 35.5 ± 11. The relative cell number (MDA-MB-231; 100 nM) was 27.3 ± 6.1, the relative cell number (MDA-MB-231; 1000 nM) was 13.4 ± 6.6 and the relative cell number (MDA-MB-231; 10000 nM) was 4.59 ± 3.4. The relative cell number (SKBR3; 10 nM) was 60.9 ± 22, the relative cell number (SKBR3; 100 nM) was 52.5 ± 9 and the relative cell number (SKBR3; 1000 nM) was 21.3 ± 0.55. It also gave a relative cell number (SKBR3; 10000 nM) of 3.5 ± 2.2, a relative cell number (ZR-75-1; 10 nM) of 40.4 ± 14 and a relative cell number (ZR-75-1; 100 nM) of 49.8 ± 19. For the same compound, the relative cell number (ZR-75-1; 1000 nM) was 25.6 ± 4.3 and the relative cell number (ZR-75-1; 10000 nM) was 3.38 ± 1.2.
`N#Cc1ccc(COC[C@H]2O[C@@H](n3c(NCc4ccc(Cl)c(Cl)c4)nc4c(N)ncnc43)[C@H](O)[C@@H]2O)cc1` gave a relative cell number (BT-20; 10 nM) of 108 ± 25, a relative cell number (BT-20; 100 nM) of 92.7 ± 6.8 and a relative cell number (BT-20; 1000 nM) of 91.1 ± 26. It also gave a relative cell number (BT-20; 10000 nM) of 73.2 ± 18, a relative cell number (HCC-38; 10 nM) of 90.8 ± 12 and a relative cell number (HCC-38; 100 nM) of 99.2 ± 8.1. The relative cell number (HCC-38; 1000 nM) was 99.1 ± 19, the relative cell number (HCC-38; 10000 nM) was 93.9 ± 15 and the relative cell number (MDA-MB-231; 10 nM) was 83.77 ± 0.66. The relative cell number (MDA-MB-231; 100 nM) was 98.3 ± 7, the relative cell number (MDA-MB-231; 1000 nM) was 115 ± 28 and the relative cell number (MDA-MB-231; 10000 nM) was 28.9 ± 0.7. It also gave a relative cell number (SKBR3; 10 nM) of 105 ± 14, a relative cell number (SKBR3; 100 nM) of 139 ± 29 and a relative cell number (SKBR3; 1000 nM) of 106 ± 24. The relative cell number (SKBR3; 10000 nM) was 60.1 ± 4.3, the relative cell number (ZR-75-1; 10 nM) was 105 ± 48 and the relative cell number (ZR-75-1; 100 nM) was 90.5 ± 13. For the same compound, the relative cell number (ZR-75-1; 1000 nM) was 64.7 ± 41 and the relative cell number (ZR-75-1; 10000 nM) was 39.1 ± 0.67.
For `O=C(NOCC(O)CO)c1cc(Br)c(F)c(F)c1Nc1ccc(I)cc1F` (stereo not given), the relative cell number (BT-20; 10 nM) was 86.8 ± 14, the relative cell number (BT-20; 100 nM) was 86.9 ± 14 and the relative cell number (BT-20; 1000 nM) was 94.1 ± 9.3. For the same compound, the relative cell number (BT-20; 10000 nM) was 83.5 ± 7.2, the relative cell number (HCC-38; 10 nM) was 85.4 ± 6.8 and the relative cell number (HCC-38; 100 nM) was 83.2 ± 6.4. The relative cell number (HCC-38; 1000 nM) was 81.8 ± 3.8, the relative cell number (HCC-38; 10000 nM) was 86.2 ± 8.4 and the relative cell number (MDA-MB-231; 10 nM) was 105 ± 17. It also gave a relative cell number (MDA-MB-231; 100 nM) of 75.8 ± 19, a relative cell number (MDA-MB-231; 1000 nM) of 56.5 ± 25 and a relative cell number (MDA-MB-231; 10000 nM) of 47.5 ± 17. The relative cell number (SKBR3; 10 nM) was 118 ± 48, the relative cell number (SKBR3; 100 nM) was 123 ± 58 and the relative cell number (SKBR3; 1000 nM) was 112 ± 36. For the same compound, the relative cell number (SKBR3; 10000 nM) was 83.5 ± 34, the relative cell number (ZR-75-1; 10 nM) was 83.5 ± 48 and the relative cell number (ZR-75-1; 100 nM) was 76.9 ± 7.1. For the same compound, the relative cell number (ZR-75-1; 1000 nM) was 71.2 ± 4.6 and the relative cell number (ZR-75-1; 10000 nM) was 56.5 ± 2.3.
`O=C1NC(=O)/C(=C/c2ccc3nccc(-c4ccncc4)c3c2)S1` gave a relative cell number (BT-20; 10 nM) of 92.4 ± 28, a relative cell number (BT-20; 100 nM) of 81.1 ± 9.8 and a relative cell number (BT-20; 1000 nM) of 62.2 ± 16. The relative cell number (BT-20; 10000 nM) was 46.5 ± 18, the relative cell number (HCC-38; 10 nM) was 95.7 ± 5 and the relative cell number (HCC-38; 100 nM) was 85.8 ± 11. For the same compound, the relative cell number (HCC-38; 1000 nM) was 87.5 ± 1.1, the relative cell number (HCC-38; 10000 nM) was 42.38 ± 0.22 and the relative cell number (MDA-MB-231; 10 nM) was 79.8 ± 14. It also gave a relative cell number (MDA-MB-231; 100 nM) of 87.5 ± 0.95, a relative cell number (MDA-MB-231; 1000 nM) of 96 ± 18 and a relative cell number (MDA-MB-231; 10000 nM) of 54.1 ± 2.6. The relative cell number (SKBR3; 10 nM) was 112 ± 35, the relative cell number (SKBR3; 100 nM) was 123 ± 53 and the relative cell number (SKBR3; 1000 nM) was 90.9 ± 9.8. The relative cell number (SKBR3; 10000 nM) was 34.7 ± 6.4, the relative cell number (ZR-75-1; 10 nM) was 78.3 ± 2.5 and the relative cell number (ZR-75-1; 100 nM) was 128 ± 6.6. The relative cell number (ZR-75-1; 1000 nM) was 99 ± 38 and the relative cell number (ZR-75-1; 10000 nM) was 38.6 ± 7.8.
With `O=c1cc(-c2cccc3c2Sc2ccccc2S3)oc(N2CCOCC2)c1` the relative cell number (BT-20; 10 nM) was 76.9 ± 1.4, the relative cell number (BT-20; 100 nM) was 116 ± 4.1 and the relative cell number (BT-20; 1000 nM) was 110.8 ± 0.94. For the same compound, the relative cell number (BT-20; 10000 nM) was 109 ± 22, the relative cell number (HCC-38; 10 nM) was 91.6 ± 7.9 and the relative cell number (HCC-38; 100 nM) was 79.2 ± 1.7. For the same compound, the relative cell number (HCC-38; 1000 nM) was 88.4 ± 18, the relative cell number (HCC-38; 10000 nM) was 82.7 ± 9.9 and the relative cell number (MDA-MB-231; 10 nM) was 119 ± 4.4. The relative cell number (MDA-MB-231; 100 nM) was 77.3 ± 7.3, the relative cell number (MDA-MB-231; 1000 nM) was 89.5 ± 12 and the relative cell number (MDA-MB-231; 10000 nM) was 46.8 ± 19. The relative cell number (SKBR3; 10 nM) was 85.1 ± 17, the relative cell number (SKBR3; 100 nM) was 94.4 ± 12 and the relative cell number (SKBR3; 1000 nM) was 115 ± 17. It also gave a relative cell number (SKBR3; 10000 nM) of 54.3 ± 6.1, a relative cell number (ZR-75-1; 10 nM) of 81.3 ± 28 and a relative cell number (ZR-75-1; 100 nM) of 98.8 ± 25. For the same compound, the relative cell number (ZR-75-1; 1000 nM) was 75.5 ± 26 and the relative cell number (ZR-75-1; 10000 nM) was 58.3 ± 15.
Work on `OCc1ccc(-c2ccc(-c3ccc(CO)s3)o2)s1` yielded a relative cell number (BT-20; 10 nM) of 110 ± 32, a relative cell number (BT-20; 100 nM) of 77.9 ± 13 and a relative cell number (BT-20; 1000 nM) of 24.9 ± 1.5. The relative cell number (BT-20; 10000 nM) was 12.3 ± 6.7, the relative cell number (HCC-38; 10 nM) was 118 ± 10 and the relative cell number (HCC-38; 100 nM) was 119 ± 4.3. For the same compound, the relative cell number (HCC-38; 1000 nM) was 110 ± 18, the relative cell number (HCC-38; 10000 nM) was 63.6 ± 18 and the relative cell number (MDA-MB-231; 10 nM) was 117 ± 27. The relative cell number (MDA-MB-231; 100 nM) was 118 ± 5.9, the relative cell number (MDA-MB-231; 1000 nM) was 102 ± 7.9 and the relative cell number (MDA-MB-231; 10000 nM) was 40 ± 2.9. For the same compound, the relative cell number (SKBR3; 10 nM) was 84.8 ± 34, the relative cell number (SKBR3; 100 nM) was 15.6 ± 0.84 and the relative cell number (SKBR3; 1000 nM) was 10.9 ± 4.8. It also gave a relative cell number (SKBR3; 10000 nM) of 5.65 ± 0.36, a relative cell number (ZR-75-1; 10 nM) of 59.9 ± 6 and a relative cell number (ZR-75-1; 100 nM) of 9.97 ± 1.1. For the same compound, the relative cell number (ZR-75-1; 1000 nM) was 10.6 ± 4.2 and the relative cell number (ZR-75-1; 10000 nM) was 4.09 ± 1.8.
With `CC/C(=C(\c1ccc(O)cc1)c1ccc(OCCN(C)C)cc1)c1ccccc1` [4-Hydroxytamoxifen] the relative cell number (BT-20; 10 nM) was 96.8 ± 8.9, the relative cell number (BT-20; 100 nM) was 88.3 ± 28 and the relative cell number (BT-20; 1000 nM) was 106 ± 10. It also gave a relative cell number (BT-20; 10000 nM) of 74.5 ± 21, a relative cell number (HCC-38; 10 nM) of 94.8 ± 10 and a relative cell number (HCC-38; 100 nM) of 93.2 ± 5.7. For the same compound, the relative cell number (HCC-38; 1000 nM) was 90.4 ± 20, the relative cell number (HCC-38; 10000 nM) was 81.5 ± 14 and the relative cell number (MDA-MB-231; 10 nM) was 95.8 ± 17. It also gave a relative cell number (MDA-MB-231; 100 nM) of 88.2 ± 7.9, a relative cell number (MDA-MB-231; 1000 nM) of 100 ± 3.5 and a relative cell number (MDA-MB-231; 10000 nM) of 96.2 ± 9. The relative cell number (SKBR3; 10 nM) was 104 ± 19, the relative cell number (SKBR3; 100 nM) was 100 ± 45 and the relative cell number (SKBR3; 1000 nM) was 80 ± 2.2. The relative cell number (SKBR3; 10000 nM) was 40.6 ± 10, the relative cell number (ZR-75-1; 10 nM) was 95.8 ± 9.6 and the relative cell number (ZR-75-1; 100 nM) was 61.5 ± 4.8. It also gave a relative cell number (ZR-75-1; 1000 nM) of 70.2 ± 15 and a relative cell number (ZR-75-1; 10000 nM) of 34.6 ± 8.6.
